The values below come from patent publication US9937115B2, “Oral care compositions with improved flavor” (priority 2010, dated 2018).

For experiment [1] the following is noted: concentration where the cooling effect could be clearly recognized; cited from earlier work.
A short description of experiment [2]: Panelists brushed with dentifrice Formula Ia-Ie and rated reduction in soapy off taste and flavor character. It counts as in vivo. The conditions noted are these: molecule incorporated in toothpaste Formula Ia-Ie; panelists n=4. The source says: Then, these materials were further screened in Test Formula Ia-Ie, by incorporating at the indicated level. After the toothpaste was made, a small group of panelists (n=4) brushed with the dentifrice and rated the reduction in soapy off taste and the flavor character the compound provided.

For experiment [3], the target named is T1, TRPA1 receptor (Homo sapiens, UniProt O75762).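 For TRPA1 Pre-incubation: values above 100 mean more active than the control.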
T1 construct: expressed in transfected cells; host or cells: HEK cell line
Put plainly: cell-based. Details: activation: dose or concentration left out as unconfirmed. The note with it: for activation at 100 µM / activation: HEK293; for activation at 100 µM / activation / TRPA1 Direct addition: percentage of the control (allyl isothiocyanate) calcium count, material dissolved in DMSO at 100 micromolar, HEK cells with TRPA1; for activation at 100 µM / TRPA1 Direct addition: direct addition; for activation at 100 µM: read-out: TRPA1 Direct addition; for activation: pre-incubation, read-out: TRPA1 Pre-incubation; for % of AITC Receptor Activation (from Data in Table II): restated in Table III from Table II. The essentials: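 HEK cells expressing TRPA1 were treated with test compounds dissolved in DMSO at 100 micromolar, with allyl isothiocyanate as positive control. Agonism was read on a FLIPR as calcium-dye fluorescence counts above background. A TRPA1 activator was defined as giving at least 1000 counts above background at 1 mM.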

Experiment [4] deals with T1, TRPA1 receptor. The experiment is classed as cell-based. The note with it: percentage of the control (allyl isothiocyanate) calcium count, material dissolved in DMSO at 100 micromolar, HEK cells with TRPA1.

T1 sequence (O75762 whole entry): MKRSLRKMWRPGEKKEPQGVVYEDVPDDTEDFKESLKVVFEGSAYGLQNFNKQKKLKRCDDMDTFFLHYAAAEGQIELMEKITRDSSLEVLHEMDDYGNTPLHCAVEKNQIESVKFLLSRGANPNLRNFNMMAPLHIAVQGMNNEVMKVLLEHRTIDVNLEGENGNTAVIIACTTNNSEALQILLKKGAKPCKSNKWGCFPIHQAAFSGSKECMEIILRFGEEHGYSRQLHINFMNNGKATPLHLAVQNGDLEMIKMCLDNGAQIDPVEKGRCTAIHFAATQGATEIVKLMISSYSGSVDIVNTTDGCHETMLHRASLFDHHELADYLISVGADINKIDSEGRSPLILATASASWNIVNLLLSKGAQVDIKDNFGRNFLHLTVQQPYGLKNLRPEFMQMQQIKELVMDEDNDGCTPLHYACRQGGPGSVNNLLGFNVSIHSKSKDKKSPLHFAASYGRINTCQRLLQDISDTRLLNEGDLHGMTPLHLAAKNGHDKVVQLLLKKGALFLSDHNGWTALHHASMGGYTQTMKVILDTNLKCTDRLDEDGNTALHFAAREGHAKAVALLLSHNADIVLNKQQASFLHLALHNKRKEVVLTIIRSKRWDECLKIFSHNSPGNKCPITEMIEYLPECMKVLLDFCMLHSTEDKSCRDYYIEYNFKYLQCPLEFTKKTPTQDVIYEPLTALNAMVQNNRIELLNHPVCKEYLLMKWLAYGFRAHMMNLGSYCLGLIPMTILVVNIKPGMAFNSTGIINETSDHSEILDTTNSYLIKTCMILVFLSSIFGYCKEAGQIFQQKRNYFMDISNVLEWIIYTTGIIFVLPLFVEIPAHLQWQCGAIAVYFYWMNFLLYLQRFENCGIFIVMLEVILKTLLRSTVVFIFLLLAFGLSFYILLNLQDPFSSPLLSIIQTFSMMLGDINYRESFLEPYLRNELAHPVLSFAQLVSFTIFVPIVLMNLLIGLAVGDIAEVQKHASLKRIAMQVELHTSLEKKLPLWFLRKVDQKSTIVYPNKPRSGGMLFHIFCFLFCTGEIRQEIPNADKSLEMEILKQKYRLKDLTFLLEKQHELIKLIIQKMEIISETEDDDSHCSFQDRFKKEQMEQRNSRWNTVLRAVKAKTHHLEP

For `CC(C)[C@@H]1CC[C@@H](C)C[C@@H]1O` [d-neomenthol], in experiment [1], the cooling threshold result was “about 25,000 ppb”.
As for `Oc1cc(Cl)ccc1Oc1ccc(Cl)cc1Cl` [Triclosan, reference compound], the “Qualitative Team Evaluations (n = 4)” value in experiment [2] was “Shifted off-taste from soapy to bitter after 10 minutes”. Also, in experiment [3], the activation at 100 µM was 196%, the activation was -0.05% and the “% of AITC Receptor Activation (from Data in Table II)” value (shortened to “% of AITC Receptor Activation”) is recorded as 277%.
As to `COc1cc(C=O)ccc1OC(=O)C(C)C` [Vanillin Isobutyrate], the “Qualitative Team Evaluations (n = 4)” value in experiment [2] is given as “Great reduction in bitter taste with no aftertaste. Slight vanilla character”. Also, in experiment [3], the activation at 100 µM was determined as 118%, the activation was -0.11% and the “% of AITC Receptor Activation” value worked out at 118%.
Regarding `CC(C)[C@@H]1CC[C@@H](C)C[C@H]1O` [L-menthol], the cooling threshold result in experiment [1] is listed as “about 800 ppb”.
`CCOc1cc(C=O)ccc1OC(=O)C(C)C` [Ethyl vanillin isobutyrate]: in experiment [2], the “Qualitative Team Evaluations (n = 4)” value was “Great reduction in bitter taste with no aftertaste. Slight vanilla character. Similar to vanillin isobutyrate”.
Regarding `CC(C)[C@@H]1CC[C@@H](C)C[C@@H]1O` [Material 1-neomenthol, 1-neomenthol], in experiment [1], the cooling threshold result is given as “about 3,000 ppb”.
As for Rhodinol 70 Spec 59508, the “TRPA1 Pre-incubation” value in experiment [4] came to 87.57%. In addition, in experiment [3], the “TRPA1 Direct addition” value is on record as −9.13%.
In the same order, the values of `CC/C=C\CCO` [Hexen-1-ol] are 80.84% and 0.06%.
In the same order, the values of `CC(C)C(=O)O` [Isobutryic Acid] are 78.64% and 1.15%.
In the same order, the values of `C=CCCCCCCCCC=O` [Undecylenic Aldehyde] are 52.14% and −14.32%.
As to `CC(=O)C1(C)CC2=C(CCCC2(C)C)CC1C` (centres unmarked) [ISO E Super], the “TRPA1 Pre-incubation” value in experiment [4] was −0.4%. The “TRPA1 Direct addition” value in experiment [3] is given as 11.53%.
For the compound `CCC(C)/C=C(\C=O)c1ccccc1` (centres unmarked) [4-Methyl-2-phenyl-2-hexenal, 4-Methyl-2-phenyl-2-hexenal], in experiment [2], the “Qualitative Team Evaluations (n = 4)” value is “Reduces the bitterness from alkyl phosphates, but it has a bitter character on its own”. Besides, the “% of AITC Receptor Activation” value in experiment [3] was 132%.
Turning to `O=C(c1ccccc1)c1ccccc1` [Benzophenone], the “Qualitative Team Evaluations (n = 4)” value in experiment [2] is recorded as “No observable effect”. Further, in experiment [3], the activation at 100 µM came out at 138%, the activation amounted to 0% and the “% of AITC Receptor Activation” value was found to be 138%.
In the case of `C=C(C)C1CC=C(C)C(OC(C)=O)C1` (centres unmarked) [carvyl acetate], the “TRPA1 Pre-incubation” value in experiment [4] stood at 117.9%. In experiment [3], the “TRPA1 Direct addition” value is given as −0.25%.
In the same order, the values of `COC(=O)CCCc1ccccc1` [Methyl 4-Phenyl butyrate] are 98.83% and −0.22%.
Consider `Cc1nc(C)c(C)s1` [,2,4,5-Trimethythiazole], for which the “TRPA1 Pre-incubation” value in experiment [4] is 64.86%. Also, in experiment [3], the “TRPA1 Direct addition” value is given as −1.43%.
In the same order, the values of `CCC=CCCOC(=O)CC(C)C` [3-Hexenyl-3-Methylbutanoate] are 88.62% and −1.61%.
In the same order, the values of `CCCC/C=C/C=C/C=O` [trans,trans,-2,4-Nonadienal] are −4.24% and 112.15%.
As to `CC1CCC(C(C)(C)S)C(=O)C1` (centres unmarked) [P-Mentha-8-Thiol-3-one], in experiment [4], the “TRPA1 Pre-incubation” value amounted to 73.82%. Also, the “TRPA1 Direct addition” value in experiment [3] was found to be 46.29%.
In the same order, the values of `CCOc1cc(C2OCC(C)O2)ccc1O` (centres unmarked) [ethyl vanillin propylene glycol acetal] are 103.19% and 0%.
In the same order, the values of `C/C(C=O)=C\c1ccccc1` [Alpha-Methyl-Trans-Cinnamaldehyde] are 72.88% and 37.95%.
In the same order, the values of `CCCC1CCC(=O)O1` (centres unmarked) [Gamma Heptalactone] are 51.03% and 1.18%.
`CC(=O)/C(C)=C/C1C(C)=CCCC1(C)C` (centres unmarked) [Gamma Methyl Ionone]: the “TRPA1 Pre-incubation” value in experiment [4] was found to be 23.55%. In experiment [3], the “TRPA1 Direct addition” value is recorded as 4.96%.
In the same order, the values of `CC(C)=CCCC(C)CCO` (centres unmarked) [Cironellol] are 51.22% and −1.03%.
